From patent US11155525B2 (Sanford Burnham Prebys Medical Discovery Institute, priority 2015, dated 2021)

Biological target: T1, human apelin receptor (Homo sapiens, UniProt P35414)
T1 construct: host or cells: CHO cells
T1 sequence (P35414 1-380): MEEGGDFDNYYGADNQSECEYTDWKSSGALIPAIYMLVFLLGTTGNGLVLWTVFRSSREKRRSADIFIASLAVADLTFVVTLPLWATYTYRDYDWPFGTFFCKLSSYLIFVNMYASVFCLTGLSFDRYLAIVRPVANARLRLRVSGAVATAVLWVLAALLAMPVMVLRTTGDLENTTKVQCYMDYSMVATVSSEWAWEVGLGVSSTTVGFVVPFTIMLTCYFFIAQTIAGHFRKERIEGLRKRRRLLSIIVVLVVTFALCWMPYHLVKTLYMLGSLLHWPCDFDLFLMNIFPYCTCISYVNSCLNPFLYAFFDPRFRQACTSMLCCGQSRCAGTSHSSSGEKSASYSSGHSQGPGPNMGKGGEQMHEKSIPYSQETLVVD
Assay: Measurement of apelin receptor agonist activity (cell-based assay determining the amount of intracellular cAMP)
Details: CHO cells stably expressing the human apelin receptor, Forskolin 10 μM, 30 minutes, 100% efficacy = [Pyr1]-apelin-13 0.300 μM, concentration giving 50% efficacy
How it was run: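 CHO cells stably expressing the receptor were treated for 30 min with compound ([…], 3-fold, 11 points; 0.3% DMSO) together with 10 μM forskolin. cAMP was measured by chemiluminescent lysate assay. Efficacy was scaled from forskolin alone (0%) to 0.300 μM [Pyr1]-apelin-13 plus forskolin (100%), and dose-response curves were fitted.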

SMILES	EC50 [nM]
COc1cccc(OC)c1-n1c(/C=C/C(=O)N2CCC[C@H]2C(=O)O)nnc1-c1ccc(C)o1 [Example 93, 1-{(2E)-3-[4-(2,6-Dimethoxyphenyl)-5-(5-methylfuran-2-yl)-4H-1,2,4-triazol-3-yl]prop-2-enoyl}-L-proline]	364
COc1cccc(OC)c1-n1c(SCc2nc(=O)o[nH]2)nnc1-c1ccc(C)o1 [Example 94, 3-({[4-(2,6-Dimethoxyphenyl)-5-(5-methylfuran-2-yl)-4H-1,2,4-triazol-3-yl]sulfanyl}methyl)-1,2,4-oxadiazol-5(2H)-one]	71
COc1cccc(OC)c1-n1c(SCC(=O)NS(=O)(=O)c2ccccc2)nnc1-c1ccc(C)o1 [Example 95, 2-{[4-(2,6-Dimethoxyphenyl)-5-(5-methylfuran-2-yl)-4H-1,2,4-triazol-3-yl]sulfanyl}-N-(phenylsulfonyl)acetamide]	6
COc1cccc(OC)c1-n1c(SCP(=O)(OC(C)C)OC(C)C)nnc1-c1ccc(C)o1 [Example 96, Dipropan-2-yl ({[4-(2,6-dimethoxyphenyl)-5-(5-methylfuran-2-yl)-4H-1,2,4-triazol-3-yl]sulfanyl}methyl)phosphonate]	605
CCOC(=O)C(=O)NCc1nnc(-c2ccc(C)o2)n1-c1c(OC)cccc1OC [Example 97, Ethyl ({[4-(2,6-dimethoxyphenyl)-5-(5-methylfuran-2-yl)-4H-1,2,4-triazol-3-yl]methyl}amino)(oxo)acetate]	273
COc1cccc(OC)c1-n1c(CNC(=O)C(=O)O)nnc1-c1ccc(C)o1 [Example 98, ({[4-(2,6-Dimethoxyphenyl)-5-(5-methylfuran-2-yl)-4H-1,2,4-triazol-3-yl]methyl}amino)(oxo)acetic acid]	1170
COc1cccc(OC)c1-n1c(CNC(=O)c2ccc(C)cc2)nnc1-c1ccc(C)o1 [Example 99, N-{[4-(2,6-Dimethoxyphenyl)-5-(5-methylfuran-2-yl)-4H-1,2,4-triazol-3-yl]methyl}-4-methylbenzamide]	338
COc1cccc(OC)c1-n1c(SCc2n[nH]c(=O)[nH]2)nnc1-c1ccc(C)o1 [Example 100, 5-({[4-(2,6-Dimethoxyphenyl)-5-(5-methylfuran-2-yl)-4H-1,2,4-triazol-3-yl]sulfanyl}methyl)-2,4-dihydro-3H-1,2,4-triazol-3-one]	957
COc1cccc(OC)c1-n1c(SCc2n[nH]c(=O)o2)nnc1-c1ccc(C)o1 [Example 101, 5-({[4-(2,6-Dimethoxyphenyl)-5-(5-methylfuran-2-yl)-4H-1,2,4-triazol-3-yl]sulfanyl}methyl)-1,3,4-oxadiazol-2(3H)-one]	587
COc1cccc(OC)c1-n1c(SCP(=O)(O)O)nnc1-c1ccc(C)o1 [Example 102, ({[4-(2,6-Dimethoxyphenyl)-5-(5-methylfuran-2-yl)-4H-1,2,4-triazol-3-yl]sulfanyl}methyl)phosphonic acid]	103
COc1cccc(OC)c1-n1c(SCC2=NOC(=O)C2)nnc1-c1ccc(C)o1 [Example 103, 3-({[4-(2,6-Dimethoxyphenyl)-5-(5-methylfuran-2-yl)-4H-1,2,4-triazol-3-yl]sulfanyl}methyl)-1,2-oxazol-5(4H)-one]	46
COc1cccc(OC)c1-n1c(SCc2cc(=O)[nH][nH]2)nnc1-c1ccc(C)o1 [Example 104, 5-({[4-(2,6-Dimethoxyphenyl)-5-(5-methylfuran-2-yl)-4H-1,2,4-triazol-3-yl]sulfanyl}methyl)-1,2-dihydro-3H-pyrazol-3-one]	48
COc1cccc(OC)c1-n1c(SCc2ccc(C(N)=O)cc2)nnc1-c1ccc(C)o1 [Example 105, 4-({[4-(2,6-Dimethoxyphenyl)-5-(5-methylfuran-2-yl)-4H-1,2,4-triazol-3-yl]sulfanyl}methyl)benzamide]	1200
COc1cccc(OC)c1-n1c(SCc2cccc(C(N)=O)c2)nnc1-c1ccc(C)o1 [Example 106, 3-({[4-(2,6-Dimethoxyphenyl)-5-(5-methylfuran-2-yl)-4H-1,2,4-triazol-3-yl]sulfanyl}methyl)benzamide]	793
COc1cccc(OC)c1-n1c(CNS(=O)(=O)c2ccc(C)cc2)nnc1-c1ccc(C)o1 [Example 107, N-{[4-(2,6-Dimethoxyphenyl)-5-(5-methylfuran-2-yl)-4H-1,2,4-triazol-3-yl]methyl}-4-methylbenzenesulfonamide]	668
